System: Mf
Assay: Compatibility of Mf with agrochemicals (CFU in liquid medium)
Assay type: cell-based, Metschnikowia fructicola
Details: TBZ 0.02%; Teldor 0.015%; Mitos 0.025%; Rovral 0.02%; Switch 0.01%; Imazalil 0.005%; 0-48 h, FIG. 8
Procedure: In order to establish that Mf is suitable for combination with a variety of commonly employed chemical pesticides, ten percent strength of liquid medium (NYDB) with various concentrations of common agrochemicals added was inoculated with a cell suspension of Mf (25 ml of 10^9 cell/ml) and incubated on a rotary shaker at room temperature. The following commercially available agrochemicals were employed: TBZ (0.02%); Teldor (0.015%); Mitos (0.025%); Rovral (0.02%); Switch (0.01%); and Imazalil (0.005%). Samples were aseptically withdrawn from the at 0 time, 24 h and 48 h of incubation. Samples were serially diluted and aliquots of 30 μl of the dilutions were plated on PDA. Plates were incubated at 25° C. for 3–4 days and colony forming units (CFU) were counted.

With `C=CCOC(Cn1ccnc1)c1ccc(Cl)cc1Cl` (stereo not shown) [Imazalil, 1-(2-2,4-Dichlorophenyl)-2(2-propenyloxy-ethyl)-1Himidazol] the “Effect of agrochemical on growth (CFU) of Mf” value was “slowed, but did not prevent, its growth”.
